Measured values published in ChEMBL document CHEMBL3046559, “Sterile oat (Avena sterilis L.) cross-resistance profile to ACCase-inhibiting herbicides in Greece” (2012).

Experiments:
Assay type in all cases: functional
Avena sterilis [1] = test: Herbicidal activity against Avena sterilis accession P09 assessed as weed survival at 1 times field recommended herbicide dose
Avena sterilis [2] = test: Herbicidal activity against Avena sterilis accession P11 assessed as weed survival at 1 times field recommended herbicide dose
Avena sterilis [3] = test: Herbicidal activity against Avena sterilis accession P08 assessed as weed survival at 1 times field recommended herbicide dose
Avena sterilis [4] = test: Herbicidal activity against Avena sterilis accession P18 assessed as weed survival at 32 times field recommended herbicide dose
Avena sterilis [5] = test: Herbicidal activity against Avena sterilis accession P17 assessed as weed survival at 32 times field recommended herbicide dose
Avena sterilis [6] = test: Herbicidal activity against Avena sterilis accession P05 assessed as weed survival at 1 times field recommended herbicide dose
Avena sterilis [7] = test: Herbicidal activity against Avena sterilis accession P02 assessed as weed survival at 1 times field recommended herbicide dose
Avena sterilis [8] = test: Herbicidal activity against Avena sterilis accession P21S assessed as induction of weed mortality
Avena sterilis [9] = test: Herbicidal activity against Avena sterilis accession P19S assessed as induction of weed mortality
Avena sterilis [10] = test: Herbicidal activity against Avena sterilis accession P13S assessed as induction of weed mortality
Avena sterilis [11] = test: Herbicidal activity against Avena sterilis accession P22 assessed as induction of weed mortality
Avena sterilis [12] = test: Herbicidal activity against Avena sterilis accession P20 assessed as induction of weed mortality
Avena sterilis [13] = test: Herbicidal activity against Avena sterilis accession P17 assessed as induction of weed mortality
Avena sterilis [14] = test: Herbicidal activity against Avena sterilis accession P15 assessed as induction of weed mortality
Avena sterilis [15] = test: Herbicidal activity against Avena sterilis accession P14 assessed as induction of weed mortality
Avena sterilis [16] = test: Herbicidal activity against Avena sterilis accession P08 assessed as induction of weed mortality
Avena sterilis [17] = test: Herbicidal activity against Avena sterilis accession P04 assessed as induction of weed mortality
Avena sterilis [18] = test: Herbicidal activity against Avena sterilis accession P03 assessed as induction of weed mortality
Avena sterilis [19] = test: Herbicidal activity against Avena sterilis accession P17 assessed as weed survival at 8 times field recommended herbicide dose
Avena sterilis [20] = test: Herbicidal activity against Avena sterilis accession P15 assessed as weed survival at 8 times field recommended herbicide dose
Avena sterilis [21] = test: Herbicidal activity against Avena sterilis accession P12 assessed as weed survival at 8 times field recommended herbicide dose
Avena sterilis [22] = test: Herbicidal activity against Avena sterilis accession P14 assessed as weed survival at 32 times field recommended herbicide dose
Avena sterilis [23] = test: Herbicidal activity against Avena sterilis accession P12 assessed as weed survival at 32 times field recommended herbicide dose
Avena sterilis [24] = test: Herbicidal activity against Avena sterilis accession P11 assessed as weed survival at 32 times field recommended herbicide dose
Avena sterilis [25] = test: Herbicidal activity against Avena sterilis accession P09 assessed as weed survival at 32 times field recommended herbicide dose
Avena sterilis [26] = test: Herbicidal activity against Avena sterilis accession P08 assessed as weed survival at 32 times field recommended herbicide dose
Avena sterilis [27] = test: Herbicidal activity against Avena sterilis accession P05 assessed as weed survival at 32 times field recommended herbicide dose
Avena sterilis [28] = test: Herbicidal activity against Avena sterilis accession P03 assessed as weed survival at 32 times field recommended herbicide dose
Avena sterilis [29] = test: Herbicidal activity against Avena sterilis accession P01 assessed as weed survival at 32 times field recommended herbicide dose
Avena sterilis [30] = test: Herbicidal activity against Avena sterilis accession P13S assessed as weed survival at 1/16 times field recommended herbicide dose
Avena sterilis [31] = test: Herbicidal activity against Avena sterilis accession P10S assessed as weed survival at 1/16 times field recommended herbicide dose
Avena sterilis [32] = test: Herbicidal activity against Avena sterilis accession P20 assessed as weed survival at 16 times field recommended herbicide dose
Avena sterilis [33] = test: Herbicidal activity against Avena sterilis accession P14 assessed as weed survival at 16 times field recommended herbicide dose
Avena sterilis [34] = test: Herbicidal activity against Avena sterilis accession P07 assessed as weed survival at 16 times field recommended herbicide dose
Avena sterilis [35] = test: Herbicidal activity against Avena sterilis accession P05 assessed as weed survival at 16 times field recommended herbicide dose
Avena sterilis [36] = test: Herbicidal activity against Avena sterilis accession P04 assessed as weed survival at 16 times field recommended herbicide dose
Avena sterilis [37] = test: Herbicidal activity against Avena sterilis accession P03 assessed as weed survival at 16 times field recommended herbicide dose
Avena sterilis [38] = test: Herbicidal activity against Avena sterilis accession P01 assessed as weed survival at 16 times field recommended herbicide dose
Avena sterilis [39] = test: Herbicidal activity against Avena sterilis accession P19S assessed as weed survival at 1/8 times field recommended herbicide dose
Avena sterilis [40] = test: Herbicidal activity against Avena sterilis accession P13S assessed as weed survival at 1/8 times field recommended herbicide dose
Avena sterilis [41] = test: Herbicidal activity against Avena sterilis accession P08 assessed as weed survival at 8 times field recommended herbicide dose
Avena sterilis [42] = test: Herbicidal activity against Avena sterilis accession P03 assessed as weed survival at 8 times field recommended herbicide dose
Avena sterilis [43] = test: Herbicidal activity against Avena sterilis accession P02 assessed as weed survival at 8 times field recommended herbicide dose
Avena sterilis [44] = test: Herbicidal activity against Avena sterilis accession P01 assessed as weed survival at 8 times field recommended herbicide dose
Avena sterilis [45] = test: Herbicidal activity against Avena sterilis accession P13S assessed as weed survival at 1/4 times field recommended herbicide dose
Avena sterilis [46] = test: Herbicidal activity against Avena sterilis accession P10S assessed as weed survival at 1/4 times field recommended herbicide dose
Avena sterilis [47] = test: Herbicidal activity against Avena sterilis accession P20 assessed as weed survival at 4 times field recommended herbicide dose
Avena sterilis [48] = test: Herbicidal activity against Avena sterilis accession P17 assessed as weed survival at 4 times field recommended herbicide dose
Avena sterilis [49] = test: Herbicidal activity against Avena sterilis accession P16 assessed as weed survival at 4 times field recommended herbicide dose
Avena sterilis [50] = test: Herbicidal activity against Avena sterilis accession P15 assessed as weed survival at 4 times field recommended herbicide dose
Avena sterilis [51] = test: Herbicidal activity against Avena sterilis accession P12 assessed as weed survival at 4 times field recommended herbicide dose
Avena sterilis [52] = test: Herbicidal activity against Avena sterilis accession P09 assessed as weed survival at 4 times field recommended herbicide dose
Avena sterilis [53] = test: Herbicidal activity against Avena sterilis accession P20 assessed as weed survival at 1 times field recommended herbicide dose
Avena sterilis [54] = test: Herbicidal activity against Avena sterilis accession P04 assessed as weed survival at 4 times field recommended herbicide dose
Avena sterilis [55] = test: Herbicidal activity against Avena sterilis accession P03 assessed as weed survival at 4 times field recommended herbicide dose
Avena sterilis [56] = test: Herbicidal activity against Avena sterilis accession P02 assessed as weed survival at 4 times field recommended herbicide dose
Avena sterilis [57] = test: Herbicidal activity against Avena sterilis accession P10S assessed as weed survival at 1 times field recommended herbicide dose
Avena sterilis [58] = test: Herbicidal activity against Avena sterilis accession P22 assessed as weed survival at 1 times field recommended herbicide dose

## C#CCOC(=O)[C@@H](C)Oc1ccc(Oc2ncc(Cl)cc2F)cc1 [CLODINAFOP PROPARGYL]
Avena sterilis [1]
  Survival: 63%
Avena sterilis [2]
  Survival: 100%
Avena sterilis [3]
  Survival: 100%
Avena sterilis [4]
  Survival: 20%
Avena sterilis [5]
  Survival: 20%
Avena sterilis [6]
  Survival: 90%
Avena sterilis [7]
  Survival: 97%
Avena sterilis [8]
  GR50: 11 gAi/ha
Avena sterilis [9]
  GR50: 29 gAi/ha
Avena sterilis [10]
  GR50: 5 gAi/ha
Avena sterilis [11]
  GR50: 122 gAi/ha
Avena sterilis [12]
  GR50: 508 gAi/ha
Avena sterilis [13]
  GR50: 283 gAi/ha
Avena sterilis [14]
  GR50: >1312 gAi/ha
Avena sterilis [15]
  GR50: 1219 gAi/ha
Avena sterilis [16]
  GR50: >1312 gAi/ha
Avena sterilis [17]
  GR50: >1312 gAi/ha
Avena sterilis [18]
  GR50: >1312 gAi/ha
Avena sterilis [19]
  Survival: 40%
Avena sterilis [20]
  Survival: 100%
Avena sterilis [21]
  Survival: 100%
Avena sterilis [22]
  Survival: 43%
Avena sterilis [23]
  Survival: 83%
Avena sterilis [24]
  Survival: 93%
Avena sterilis [25]
  Survival: 0%
Avena sterilis [26]
  Survival: 67%
Avena sterilis [27]
  Survival: 0%
Avena sterilis [28]
  Survival: 73%
Avena sterilis [29]
  Survival: 40%
Avena sterilis [30]
  Survival: 70%
Avena sterilis [31]
  Survival: 80%
Avena sterilis [32]
  Survival: 57%
Avena sterilis [33]
  Survival: 77%
Avena sterilis [34]
  Survival: 0%
Avena sterilis [35]
  Survival: 13%
Avena sterilis [36]
  Survival: 73%
Avena sterilis [37]
  Survival: 87%
Avena sterilis [38]
  Survival: 70%
Avena sterilis [39]
  Survival: 97%
Avena sterilis [40]
  Survival: 63%
Avena sterilis [41]
  Survival: 93%
Avena sterilis [42]
  Survival: 97%
Avena sterilis [43]
  Survival: 97%
Avena sterilis [44]
  Survival: 80%
Avena sterilis [45]
  Survival: 10%
Avena sterilis [46]
  Survival: 40%
Avena sterilis [47]
  Survival: 73%
Avena sterilis [48]
  Survival: 67%
Avena sterilis [49]
  Survival: 50%
Avena sterilis [50]
  Survival: 100%
Avena sterilis [51]
  Survival: 97%
Avena sterilis [52]
  Survival: 20%
Avena sterilis [53]
  Survival: 93%
Avena sterilis [54]
  Survival: 100%
Avena sterilis [55]
  Survival: 100%
Avena sterilis [56]
  Survival: 100%
Avena sterilis [57]
  Survival: 0%
Avena sterilis [58]
  Survival: 90%
